The results in this text go back to patent US20250115577A1, “BCL-2 Inhibitors” (Eil Therapeutics, Inc., priority 2021, published 2025).

Some results are limits rather than exact numbers.

The target of series [1] is BCL-2 (Homo sapiens (Human), UniProt P10415). Nature of the series: BCL-2 TR-FRET Assay (primary PPI inhibition). Conditions: 60 min incubation, read-out: BCL2 IC50. It counts as binding. As to the method:
Example A. BCL-2 TR-FRET Assay (BPS Bioscience, #50222)
The following assay concentrations and times were used: 3 ng of BCL-2, 5 μL of 1:100 anti-His Tb-labeled donor, 5 μL of 1:100 Dye-labeled acceptor, 5 µL of 1:40 BCL-2 Peptide Ligand, and 2 μL of 200× test compound, with 60 min incubation time (final concentration of DMSO 0.5%). The results of the assay were read using a plate reader with the following parameters: TR FRET, 340ex/620 and 665em; 60 usec Delay; and 500 usec integration.
(§1) Instrumentation: CLARIOstar Plus (BMG LABTECH); Biomek FX for liquid handling (Beckman Coulter).

The target of series [2] is BCL-xL (Homo sapiens (Human), UniProt Q07817). Briefly: BCL-xL TR-FRET Assay (primary PPI inhibition). It counts as binding. Conditions: 60 min incubation, read-out: BCLxL IC50. How it is done:
Example B. BCL-xL TR-FRET Assay (BPS Bioscience, #50223)
The following assay concentrations and times were used: 10.5 ng of BCL-xL, 5 μL of 1:120 anti-His Tb-labeled donor, 5 μL of 1:120 Dye-labeled acceptor, 5 μL of 1:96 BCL-xL Peptide Ligand, 2 μL of 200× test compound, with 60 min incubation time (final concentration of DMSO 0.5%). The results of the assay were read using a plate reader with the following parameters: TR FRET, 340ex/620 and 665em; 60 usec Delay; and 500 usec integration.
as §1

The test system of series [3] is RS4-11 cells. Nature of the series: Cell viability assay (CellTiter-Glo), RS4-11. Particulars: Homo sapiens, RS4-11, 72 h, 3 days of incubation. Format: cell-based. How it is done:
(§2) Example D. Cell Viability Assays (Cell lines HEK293, RS4-11, MOLT-4)
(§3) Cells were seeded at a density of 4000 cells per well in the 384-well clear bottom plate (Greiner Cat #781090) to the 45 μL total volume of either DMEM (PanEco, Cat #C420, for HEK293) or RPMI (PanEco, Cat #C330, for other cell lines) with 10% FBS(HyClone Cat #SV30160.03). Prior to adding compounds, the HEK293 cells were allowed to adhere overnight at 37° C. and 5% CO2. The 500× compounds solutions in DMSO(Sigma Cat #D2650) were dispersed into a 384-well compound plate (Diamond Well Plate, Axigen, Cat #P-384-120 SQ-C—S) including only DMSO control. The 1 μL aliquots of the 500× compounds from the compound plate were added to 49 μL of culture medium in the Dilution plate (Diamond Well Plate, Axigen, Cat #P-384-120 SQ-C—S), mixed and then the 5 μL aliquts of the 10× compound solutions were transferred to cells followed by centrifugation at 100 g for 1 min. Final DMSO concentration was 0.2%. After 3 days of incubation the 10 μL aliquots of CellTiter-Glo (Promega, CAT #G7572) were added to the cells, plate was centrifuged at 100 g for 1 min and the luminescence was measured on the CLARIOstar Plus (BMG LABTECH) instrument.
as §1
Background: In ATP-based viability assays light output follows the ATP content of the culture.

Series [4] can be described thus: Cell viability assay (CellTiter-Glo), HEK293. Format: cell-based. Particulars: human, HEK293 cells, 3 days of incubation. How it is done:
as §2, §3, §1

Series [5] concerns MOLT-4 cells. Nature of the series: Cell viability assay (CellTiter-Glo), MOLT-4. Conditions: Homo sapiens, 72 h, 3 days of incubation. It counts as cell-based. As to the method:
as §2, §3, §1

For series [6], the system named is caspase-3 and -7 activities in RS4-11 cells. Nature of the series: Caspase-3/7 activation (Caspase-Glo 3/7) in RS4-11 cells. It counts as cell-based. Conditions: Homo sapiens, 3.5 h, read-out: Cas-3/7 EC50. As to the method: Example E. Caspase-3/7 Activation
Assay Principle: The Caspase-Glo 3/7 Assay is homogeneous, luminescent assay that measures caspase-3 and -7 activities. The assay provides a luminogenic caspase-3/7 substrate, which contains the tetrapeptide sequence DEVD, in a reagent optimized for caspase activity.
Assay Procedure: Incubate RS4-11 (ATCC, CRL-1873) cells in the 384-well white plate (Corning, #3570) with varying concentrations of test compounds for 3.5 h in a humidified incubator at 37° C. and 5% CO2 […]. Add 15 μL of the Caspase-Glo (Promega, #8212) reagent to each well and to incubate the plate for 30 min at rt. Read on the CLARIOstar Plus (BMG LABTECH) instrument.
as §1

BCL-xL, sequence (Q07817 whole entry): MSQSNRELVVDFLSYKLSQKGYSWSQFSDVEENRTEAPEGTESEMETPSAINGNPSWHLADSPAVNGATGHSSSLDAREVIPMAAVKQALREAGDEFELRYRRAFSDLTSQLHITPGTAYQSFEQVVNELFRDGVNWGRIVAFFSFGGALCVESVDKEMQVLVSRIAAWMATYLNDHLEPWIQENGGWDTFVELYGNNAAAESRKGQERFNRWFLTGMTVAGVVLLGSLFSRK
BCL-2, sequence (P10415 whole entry): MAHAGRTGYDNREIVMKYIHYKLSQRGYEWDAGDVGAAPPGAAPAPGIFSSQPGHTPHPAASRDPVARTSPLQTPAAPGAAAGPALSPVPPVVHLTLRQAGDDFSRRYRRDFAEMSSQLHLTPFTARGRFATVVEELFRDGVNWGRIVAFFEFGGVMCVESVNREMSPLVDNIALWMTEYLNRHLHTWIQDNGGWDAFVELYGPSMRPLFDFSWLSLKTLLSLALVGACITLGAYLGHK

As to `COc1cccc(CN(C(=O)c2cc(-c3cc(C(F)F)c(Cl)cc3C(=O)N3Cc4ccccc4C[C@H]3CN3CCOCC3)n(C)c2C)c2ccc(Cl)cc2)c1C` [Compound 39, 5-[4-chloro-5-(difluoromethyl)-2-[(3S)-3-(morpholinomethyl)-3,4-dihydro-1H-isoquinoline-2-carbonyl]phenyl]-N-(4-chlorophenyl)-N-[(3-methoxy-2-methyl-phenyl)methyl]-1,2-dimethyl-pyrrole-3-carboxamide], the IC50 (as a rule, the concentration at which inhibition is half-maximal) was more than 50 nM in series [1] and 2000 to 5000 nM in series [2]. In addition, the CC50 (usually the concentration that lowers cell viability or growth by half) in series [3] was more than 200 nM; in series [5], not above 5000 nM. Besides, the 50% cytotoxic concentration (CC50) at 3 days in series [4] was more than 25000 nM. The EC50 in series [6] was more than 500 nM.

Consider `COc1cccc(CN(C(=O)c2cc(-c3cc([N+](=O)[O-])ccc3C(=O)N3Cc4ccccc4C[C@H]3CN3CCOCC3)n(C)c2C)c2ccc(O)cc2)c1C` [Compound 61, N-(4-hydroxyphenyl)-N-[(3-methoxy-2-methyl-phenyl)methyl]-1,2-dimethyl-5-[2-[(3S)-3-(morpholinomethyl)-3,4-dihydro-1H-isoquinoline-2-carbonyl]-5-nitro-phenyl]pyrrole-3-carboxamide], for which the IC50 in series [1] was not above 5 nM; in series [2] it was more than 5000 nM. Also, the CC50 is not above 100 nM in series [3] and not above 5000 nM in series [5]. In addition, the CC50 at 3 days in series [4] is more than 25000 nM. Further, the EC50 in series [6] fell in the range of 200 to 500 nM.

`Cc1c(C(=O)N(Cc2ccccc2C#N)c2ccc3cn[nH]c3c2)cc(-c2cc([N+](=O)[O-])ccc2C(=O)N2Cc3ccccc3C[C@H]2CN2CCOCC2)n1C` [Compound 66, N-[(2-cyanophenyl)methyl]-N-(1H-indazol-6-yl)-1,2-dimethyl-5-[2-[(3S)-3-(morpholinomethyl)-3,4-dihydro-1H-isoquinoline-2-carbonyl]-5-nitro-phenyl]pyrrole-3-carboxamide]: the concentration for half-maximal inhibition (IC50) is more than 50 nM in series [1] and more than 5000 nM in series [2].

For `COc1cccc(CN(C(=O)c2cc(-c3cc(C#N)ccc3C(=O)N3Cc4ccccc4C[C@H]3CN3CCOCC3)n(C)c2C)c2ccc(O)cc2)c1C` [Compound 57, 5-[5-cyano-2-[(3S)-3-(morpholinomethyl)-3,4-dihydro-1H-isoquinoline-2-carbonyl]phenyl]-N-(4-hydroxyphenyl)-N-[(3-methoxy-2-methyl-phenyl)methyl]-1,2-dimethyl-pyrrole-3-carboxamide], the IC50 is 5 to 10 nM in series [1] and 2000 to 5000 nM in series [2]. The half-maximal cytotoxic concentration (CC50) is not above 100 nM in series [3] and not above 5000 nM in series [5]. In series [4], this compound yielded a CC50 at 3 days of more than 25000 nM. For the same compound, the EC50 in series [6] was not above 200 nM.

With `COc1ccccc1CN(C(=O)c1cc(-c2cc(OC)c(C(N)=O)cc2C(=O)N2Cc3ccccc3C[C@H]2CN2CCOCC2)n(C)c1C)c1ccc(Cl)cc1` [Compound 63, 5-[4-carbamoyl-5-methoxy-2-[(3S)-3-(morpholinomethyl)-3,4-dihydro-1H-isoquinoline-2-carbonyl]phenyl]-N-(4-chlorophenyl)-N-[(2-methoxyphenyl)methyl]-1,2-dimethyl-pyrrole-3-carboxamide], the half-inhibitory concentration (IC50) in series [1] was 10 to 50 nM. Moreover, the CC50 in series [3] is 100 to 200 nM; in series [5] it was not above 5000 nM. For the same compound, the cytotoxic concentration (CC50) at 3 days in series [4] lay in the range of 10000 to 25000 nM. The EC50 in series [6] is more than 500 nM.

Take `COc1cccc(CN(C(=O)c2cc(-c3cc(F)c(OC(F)F)cc3C(=O)N3Cc4ccccc4C[C@H]3CN3CCOCC3)n(C)c2C)c2ccc(C#N)cc2)c1C` [Compound 44, N-(4-cyanophenyl)-5-[4-(difluoromethoxy)-5-fluoro-2-[(3S)-3-(morpholinomethyl)-3,4-dihydro-1H-isoquinoline-2-carbonyl]phenyl]-N-[(3-methoxy-2-methyl-phenyl)methyl]-1,2-dimethyl-pyrrole-3-carboxamide]: the values for the IC50 in series [1] and in series [2] were more than 50 nM and 2000 to 5000 nM, respectively.

With `COc1cccc(CN(C(=O)c2cc(-c3c(C)cc(Cl)cc3C(=O)N3Cc4ccccc4C[C@H]3CN3CCOCC3)n(C)c2C)c2ccc(O)cc2)c1C` [Compound 50, 5-[4-chloro-2-methyl-6-[(3S)-3-(morpholinomethyl)-3,4-dihydro-1H-isoquinoline-2-carbonyl]phenyl]-N-(4-hydroxyphenyl)-N-[(3-methoxy-2-methyl-phenyl)methyl]-1,2-dimethyl-pyrrole-3-carboxamide], the half-inhibitory concentration (IC50) in series [1] was more than 50 nM; in series [2], 2000 to 5000 nM.

Take `COc1cc(-c2cc(C(=O)N(Cc3cccc(OC)c3C)c3ccc(Cl)cc3)c(C)n2C)c(C(=O)N2Cc3ccccc3C[C@H]2CN2CCOCC2)cc1C#N` [Compound 60, N-(4-chlorophenyl)-5-[4-cyano-5-methoxy-2-[(3S)-3-(morpholinomethyl)-3,4-dihydro-1H-isoquinoline-2-carbonyl]phenyl]-N-[(3-methoxy-2-methyl-phenyl)methyl]-1,2-dimethyl-pyrrole-3-carboxamide]: the half-inhibitory concentration (IC50) in series [1] is more than 50 nM; in series [2], 2000 to 5000 nM.

With `COc1cccc(CN(C(=O)c2cc(-c3cc([N+](=O)[O-])ccc3C(=O)N3Cc4ccccc4C[C@H]3CN3CCOCC3)n(C)c2C)c2ccc3cn[nH]c3c2)c1C` [Compound 67, N-(1H-indazol-6-yl)-N-[(3-methoxy-2-methyl-phenyl)methyl]-1,2-dimethyl-5-[2-[(3S)-3-(morpholinomethyl)-3,4-dihydro-1H-isoquinoline-2-carbonyl]-5-nitro-phenyl]pyrrole-3-carboxamide], the results for the 50% inhibitory concentration (IC50) in series [1] and in series [2] were more than 50 nM and more than 5000 nM, respectively.

With `COc1cc(-c2cc(C(=O)N(Cc3ccccc3C#N)c3ccc(Cl)cc3)c(C)n2C)c(C(=O)N2Cc3ccccc3C[C@H]2CN2CCOCC2)cc1C#N` [Compound 59, N-(4-chlorophenyl)-5-[4-cyano-5-methoxy-2-[(3S)-3-(morpholinomethyl)-3,4-dihydro-1H-isoquinoline-2-carbonyl]phenyl]-N-[(2-cyanophenyl)methyl]-1,2-dimethyl-pyrrole-3-carboxamide], the 50% inhibitory concentration (IC50) in series [1] is more than 50 nM; in series [2], 2000 to 5000 nM.

On to `COc1cccc(CN(C(=O)c2cc(-c3cc(Cl)c(OC(F)F)cc3C(=O)N3Cc4ccccc4C[C@H]3CN3CCOCC3)n(C)c2C)c2ccc(C#N)cc2)c1C` [Compound 40, 5-[5-chloro-4-(difluoromethoxy)-2-[(3S)-3-(morpholinomethyl)-3,4-dihydro-1H-isoquinoline-2-carbonyl]phenyl]-N-(4-cyanophenyl)-N-[(3-methoxy-2-methyl-phenyl)methyl]-1,2-dimethyl-pyrrole-3-carboxamide], for which the half-maximal inhibitory concentration (IC50) in series [1] is more than 50 nM; in series [2] it was 2000 to 5000 nM.

For the compound `COc1cccc(CN(C(=O)c2cc(-c3cc(Cl)ccc3C(=O)N3Cc4ccccc4C[C@H]3CN3CCOCC3)n(C)c2C)c2ccc(C#N)cc2)c1C` [Compound 33, 5-[5-chloro-2-[(3S)-3-(morpholinomethyl)-3,4-dihydro-1H-isoquinoline-2-carbonyl]phenyl]-N-(4-cyanophenyl)-N-[(3-methoxy-2-methyl-phenyl)methyl]-1,2-dimethyl-pyrrole-3-carboxamide], the IC50 in series [1] is more than 50 nM; in series [2], 2000 to 5000 nM.
